Patent publication US20220127247A1, “N-(PYRIDIN-2-YL)PYRIDINE-SULFONAMIDE DERIVATIVES AND THEIR USE IN THE TREATMENT OF DISEASE” (NOVARTIS AG, priority 2019, published 2022)

Biological target: T1, delF508-CFTR (Homo sapiens, UniProt P13569, DEL508-508)
T1 construct: expressed in transfected cells
Experiment: Measurement of delF508-CFTR-HRP surface expression in CFBE41o- cells
Format: cell-based
Conditions: for EC50: HRP-tagged delF508-CFTR in CFBE41o- cells, 24 h with compound, luminescence, 10-point curve, top 10 μM; for Emax: efficacy relative to reference compound 3-(6-(1-(2,2-difluorobenzo[d][1,3]dioxol-5-yl)cyclopropane-1-carboxamido)-3-methylpyridin-2-yl)benzoic acid, CFBE41o- cells, 24 h, read-out: DelF508-CFTR-HRP Amax %
Excerpt: Measurement of delF508-CFTR-HRP Surface Expression in CFBE41o-Cells
This assay quantifies the cell surface expressions of the mutant CFTR channel using an extracellular HRP tag.
A cellular assay was developed to measure surface expression of horseradish peroxidase (HRP) tagged delF508-CFTR in the human bronchial epithelial immortalized CFBE41o-cell line (Phuan, P. W., et al, (2014) Molecular Pharmacology 86:42-51). Specifically, the HRP sequence was inserted into the fourth extracellular loop of delF508-CFTR and stably expressed in CFBE41o-cells. Cells were seeded in 384 well plate at a density of 5000 cells/well and incubated at 37° C. for 12 to 24 hours in medium (Gibco MEM #11095, 10% FBS, 10 mM HEPES, […], 200 μg/mL G418, 3 μg/mL Puromycin). The delF508-CFTR-HRP expression was induced with 500 ng/mL doxycycline (Sigma D-9891, dissolved in H2O and sterile filtered) in medium and the cells were incubated at 37° C. for 48 h. Old medium was removed and fresh medium was added containing 500 ng/mL doxycycline and unknown test compound at required test concentration in DMSO, not exceeding 0.5% final DMSO concentration. The highest concentration tested was 10 μM with a 10-point concentration response curve using a 3-fold dilution. After addition of compounds, the cells were incubated for 24 h at 37° C. On the final day, cells were washed four times in PBS containing 1 mM MgCl2 and 0.1 mM CaCl2. HRP-Substrate (SuperSignal ELISA Pico, Fisher #37069) 20 μl/well was added and the luminescence signal was determined (Viewlux, Perkin Elmer). Light was emitted upon addition of exogenous HRP-Substrate only when delF508-CFTR-HRP reached the cell surface and the HRP tag was accessible to the HRP-Substrate (note: HRP-Substrate cannot cross the lipid bilayer to reach delF508-CFTR-HRP misfolded within the cell).
The median activity for the lowest concentration of the compounds on each assay plate was calculated and this value was used to normalize the signal for each well on the respective plate. Three replicates at each concentrations for every compound were run to determine one EC50. The median value was determined and used to calculate compound activities as described below. Effective half maximal values (EC50) were calculated for each compound by performing logistic regression on measured dose-response data points using the equation: […]
where “Y” is the observed activity, “Bottom” is the lowest observed value, “Top” is the highest observed value, and the “Hill coefficient” gives the largest absolute value of the slope. The curve fitting is carried out by a curve fitting program implemented at GNF using Matlab (Mathworks).
The dose response curves also were used to calculate Fold Change (FC) using the equation: […]
Compound efficacy relative to the reference compound 3-(6-(1-(2,2-difluorobenzo[d][1,3]dioxol-5-yl)cyclopropane-1-carboxamido)-3-methylpyridin-2-yl)benzoic acid was determined using the following formula: […]

T1 sequence (P13569 with tags, fused parts or gaps DEL508-508): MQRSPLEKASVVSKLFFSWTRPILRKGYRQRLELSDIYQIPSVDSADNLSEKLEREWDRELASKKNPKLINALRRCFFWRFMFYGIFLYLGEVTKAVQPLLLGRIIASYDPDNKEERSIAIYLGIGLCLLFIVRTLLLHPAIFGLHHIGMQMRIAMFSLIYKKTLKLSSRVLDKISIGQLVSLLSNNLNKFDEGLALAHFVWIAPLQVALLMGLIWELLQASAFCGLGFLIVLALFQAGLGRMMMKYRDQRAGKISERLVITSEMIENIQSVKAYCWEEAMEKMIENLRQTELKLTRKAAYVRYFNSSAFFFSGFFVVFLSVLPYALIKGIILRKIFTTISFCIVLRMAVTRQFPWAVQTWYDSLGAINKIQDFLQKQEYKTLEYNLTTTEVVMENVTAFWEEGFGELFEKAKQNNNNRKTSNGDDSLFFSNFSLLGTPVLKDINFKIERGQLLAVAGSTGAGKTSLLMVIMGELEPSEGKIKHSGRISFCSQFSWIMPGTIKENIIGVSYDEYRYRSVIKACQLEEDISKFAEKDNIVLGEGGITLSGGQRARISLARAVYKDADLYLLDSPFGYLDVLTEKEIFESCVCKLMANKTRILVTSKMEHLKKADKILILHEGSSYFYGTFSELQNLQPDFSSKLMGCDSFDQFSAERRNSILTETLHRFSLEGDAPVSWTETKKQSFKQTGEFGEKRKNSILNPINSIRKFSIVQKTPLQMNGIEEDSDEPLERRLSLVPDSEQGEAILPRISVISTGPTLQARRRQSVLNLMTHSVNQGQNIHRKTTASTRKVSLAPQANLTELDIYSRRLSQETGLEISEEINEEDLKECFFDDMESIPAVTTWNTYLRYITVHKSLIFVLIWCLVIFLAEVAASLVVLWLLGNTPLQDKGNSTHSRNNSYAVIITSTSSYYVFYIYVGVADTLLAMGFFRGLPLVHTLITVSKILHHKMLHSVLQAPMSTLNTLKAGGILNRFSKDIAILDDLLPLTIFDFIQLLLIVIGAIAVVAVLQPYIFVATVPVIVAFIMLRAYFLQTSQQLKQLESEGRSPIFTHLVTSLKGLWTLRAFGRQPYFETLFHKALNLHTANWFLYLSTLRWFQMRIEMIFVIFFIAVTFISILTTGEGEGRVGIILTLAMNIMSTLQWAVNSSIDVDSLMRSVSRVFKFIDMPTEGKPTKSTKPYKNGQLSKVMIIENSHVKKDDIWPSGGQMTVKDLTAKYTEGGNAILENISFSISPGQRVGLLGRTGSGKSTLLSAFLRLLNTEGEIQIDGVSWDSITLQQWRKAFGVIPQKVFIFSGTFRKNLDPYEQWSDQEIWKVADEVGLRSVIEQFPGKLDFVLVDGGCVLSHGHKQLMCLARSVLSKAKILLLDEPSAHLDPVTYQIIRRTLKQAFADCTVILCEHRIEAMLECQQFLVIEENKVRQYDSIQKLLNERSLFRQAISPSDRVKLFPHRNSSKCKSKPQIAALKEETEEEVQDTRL

| Structure (SMILES) | EC50 [nM] | Emax [%] |
| --- | --- | --- |
| O=C(O)CC1CCN(c2cccc(S(=O)(=O)Nc3ccc(C(F)(F)F)c(-c4ccccc4C4CCC4)n3)n2)CC1 [Compound 17, 2-(1-(6-(N-(6-(2-cyclobutylphenyl)-5-(trifluoromethyl)pyridin-2-yl)sulfamoyl)pyridin-2-yl)piperidin-4-yl)acetic Acid] | 1460 | 369 |
| CC1(C(=O)O)CCN(c2cccc(S(=O)(=O)Nc3ccc(C(F)(F)F)c(-c4ccccc4-c4ncccn4)n3)n2)CC1 [Compound 18, 4-methyl-1-(6-(N-(6-(2-(pyrimidin-2-yl)phenyl)-5-(trifluoromethyl)pyridin-2-yl)sulfamoyl)pyridin-2-yl)piperidine-4-carboxylic Acid] | 2390 | 97 |
| COc1ccc(Cl)c(-c2nc(NS(=O)(=O)c3cccc(N4CCN(c5ccc(C(=O)O)cc5)CC4)n3)ccc2C(F)(F)F)c1 [Compound 21, 4-(4-(6-(N-(6-(2-chloro-5-methoxyphenyl)-5-(trifluoromethyl)pyridin-2-yl)sulfamoyl)pyridin-2-yl)piperazin-1-yl)benzoic Acid] | 2930 | 361 |
| CC(C)c1ccccc1-c1nc(NS(=O)(=O)c2cccc(N3CCC(C)(CC(=O)O)CC3)n2)ccc1C(F)(F)F [Compound 25, 2-(1-(6-(N-(6-(2-isopropylphenyl)-5-(trifluoromethyl)pyridin-2-yl)sulfamoyl)pyridin-2-yl)-4-methylpiperidin-4-yl)acetic Acid] | 1000 | 780 |
| CC1(C(=O)O)CCCN(c2cccc(S(=O)(=O)Nc3ccc(Cl)c(-c4ccccc4-c4ccccc4)n3)n2)C1 (stereo not shown) [Compound 29, 1-(6-(N-(6-([1,1′-biphenyl]-2-yl)-5-chloropyridin-2-yl)sulfamoyl)pyridin-2-yl)-3-methylpiperidine-3-carboxylic Acid] | 1300 | 969 |
| O=C(O)CC1CCN(c2cccc(S(=O)(=O)Nc3ccc(C(F)(F)F)c(-c4ccccc4C4CC4)n3)n2)C1 (stereo not shown) [Compound 33, 2-(1-(6-(N-(6-(2-cyclopropylphenyl)-5-(trifluoromethyl)pyridin-2-yl)sulfamoyl)pyridin-2-yl)pyrrolidin-3-yl)acetic Acid] | 1280 | 320 |
| Cc1ccccc1-c1nc(NS(=O)(=O)c2cccc(N(C)CCC(=O)O)n2)ccc1C(F)(F)F [Compound 34, 3-(methyl(6-(N-(6-(o-tolyl)-5-(trifluoromethyl)pyridin-2-yl)sulfamoyl)pyridin-2-yl)amino)propanoic Acid] | 2580 | 785 |
| Cc1ccccc1-c1nc(NS(=O)(=O)c2cccc(NCCC(=O)O)n2)ccc1C(F)(F)F [Compound 35, 3-((6-(N-(6-(o-tolyl)-5-(trifluoromethyl)pyridin-2-yl)sulfamoyl)pyridin-2-yl)amino)propanoic acid] | 2600 | 209 |
| Cc1ccccc1-c1nc(NS(=O)(=O)c2cccc(N(C)CCCC(=O)O)n2)ccc1C(F)(F)F [Compound 37, 4-(methyl(6-(N-(6-(o-tolyl)-5-(trifluoromethyl)pyridin-2-yl)sulfamoyl)pyridin-2-yl)amino)butanoic Acid] | 2050 | 982 |

Continued by falling EC50, values first:

| EC50 [nM] | Emax [%] | Structure (SMILES) |
| --- | --- | --- |
| 2960 | 222 | Cc1ccccc1-c1nc(NS(=O)(=O)c2cccc(NCCCC(=O)O)n2)ccc1C(F)(F)F [Compound 36, 4-((6-(N-(6-(o-tolyl)-5-(trifluoromethyl)pyridin-2-yl)sulfamoyl)pyridin-2-yl)amino)butanoic Acid] |
| 2240 | 378 | CC1(C(=O)O)CCN(c2cccc(S(=O)(=O)Nc3ccc(Cl)c(-c4ccccc4-c4ccccc4)n3)n2)CC1 [Compound 19, 1-(6-(N-(6-([1,1′-biphenyl]-2-yl)-5-chloropyridin-2-yl)sulfamoyl)pyridin-2-yl)-4-methylpiperidine-4-carboxylic Acid] |
| 2220 | 303 | CC(C)c1ccncc1-c1nc(NS(=O)(=O)c2cccc(N3CCCC(C)(C(=O)O)C3)n2)ccc1C(F)(F)F (stereo not shown) [Compound 30, 1-(6-(N-(4′-isopropyl-3-(trifluoromethyl)-[2,3′-bipyridin]-6-yl)sulfamoyl)pyridin-2-yl)-3-methylpiperidine-3-carboxylic Acid] |
| 2140 | 443 | CC(C)c1ccccc1-c1nc(NS(=O)(=O)c2cccc(N3CCC(OCC(=O)O)CC3)n2)ccc1C(F)(F)F [Compound 31, 2-((1-(6-(N-(6-(2-isopropylphenyl)-5-(trifluoromethyl)pyridin-2-yl)sulfamoyl)pyridin-2-yl)piperidin-4-yl)nxy)acetic Acid] |
| 2070 | 189 | CC1(C(=O)O)CCN(c2cccc(S(=O)(=O)Nc3ccc(C(F)(F)F)c(-c4ccccc4-c4ccncc4)n3)n2)CC1 [Compound 27, 4-methyl-1-(6-(N-(6-(2-(pyridin-4-yl)phenyl)-5-(trifluoromethyl)pyridin-2-yl)sulfamoyl)pyridin-2-yl)piperidine-4-carboxylic Acid] |
| 1800 | 372 | Cc1ccccc1-c1nc(NS(=O)(=O)c2cccc(N3CCC(CC(=O)O)C3)n2)ccc1C(F)(F)F (stereo not shown) [Compound 32, 2-(1-(6-(N-(6-(o-tolyl)-5-(trifluoromethyl)pyridin-2-yl)sulfamoyl)pyridin-2-yl)pyrrolidin-3-yl)acetic Acid] |
| 1700 | 742 | CN(CCC(=O)O)c1cccc(S(=O)(=O)Nc2ccc(C(F)(F)F)c(-c3ccccc3C3CC3)n2)n1 [Compound 38, 3-((6-(N-(6-(2-cyclopropylphenyl)-5-(trifluoromethyl)pyridin-2-yl)sulfamoyl)pyridin-2-yl)(methyl)amino)propanoic Acid] |
| 1450 | 442 | CC1(C(=O)O)CCN(c2cccc(S(=O)(=O)Nc3ccc(C(F)(F)F)c(-c4ccccc4Oc4ccccc4)n3)n2)CC1 [Compound 28, 4-methyl-1-(6-(N-(6-(2-phenoxyphenyl)-5-(trifluoromethyl)pyridin-2-yl)sulfamoyl)pyridin-2-yl)piperidine-4-carboxylic Acid] |
| 1310 | 909 | CC1(CC(=O)O)CCN(c2cccc(S(=O)(=O)Nc3ccc(C(F)(F)F)c(-c4ccccc4C4CCC4)n3)n2)CC1 [Compound 24, 2-(1-(6-(N-(6-(2-cyclobutylphenyl)-5-(trifluoromethyl)pyridin-2-yl)sulfamoyl)pyridin-2-yl)-4-methylpiperidin-4-yl)acetic Acid] |
| 1260 |  | CC1(CC(=O)O)CCN(c2cccc(S(=O)(=O)Nc3ccc(C(F)(F)F)c(-c4ccccc4-c4ccccc4)n3)n2)CC1 [Compound 23, 2-(1-(6-(N-(6-([1,1′-biphenyl]-2-yl)-5-(trifluoromethyl)pyridin-2-yl)sulfamoyl)pyridin-2-yl)-4-methylpiperidin-4-yl)acetic acid] |
| 1060 | 485 | CCc1ccccc1-c1nc(NS(=O)(=O)c2cccc(N3CCC(C)(CC(=O)O)CC3)n2)ccc1C(F)(F)F [Compound 22, 2-(1-(6-(N-(6-(2-ethylphenyl)-5-(trifluoromethyl)pyridin-2-yl)sulfamoyl)pyridin-2-yl)-4-methylpiperidin-4-yl)acetic Acid] |
| 830 | 829 | CC1(CC(=O)O)CCN(c2cccc(S(=O)(=O)Nc3ccc(C(F)(F)F)c(-c4ccccc4C(C)(C)C)n3)n2)CC1 [Compound 26, 2-(1-(6-(N-(6-(2-(tert-butyl)phenyl)-5-(trifluoromethyl)pyridin-2-yl)sulfamoyl)pyridin-2-yl)-4-methylpiperidin-4-yl)acetic Acid] |
| 800 | 973 | CC1(C(=O)O)CCN(c2cccc(S(=O)(=O)Nc3ccc(C(F)(F)F)c(-c4ccccc4-c4ccccc4)n3)n2)CC1 [Compound 20, 1-(6-(N-(6-([1,1′-biphenyl]-2-yl)-5-(trifluoromethyl)pyridin-2-yl)sulfamoyl)pyridin-2-yl)-4-methylpiperidine-4-carboxylic Acid] |
